Measurements: ChEMBL document CHEMBL3044895, “Insecticidal and Antiacetyicholinesterase Activities of Isobutylthioaryl Methanesulfonates” (J Pestic Sci, 1991)

Experiments:
[1] = Lipophilicity, log K of the compound; type: physicochemical; details: octanol/water
[2] = tested on: Nephotettix cincticeps; experiment: Insecticidal activity against drug-resistant Nephotettix cincticeps Izumi (green rice leafhopper) assessed as mortality […] after 2 days by foliar spraying method; type: functional; details: 48 h
[3] = tested on: Nephotettix cincticeps; experiment: Insecticidal activity against drug-susceptible Nephotettix cincticeps Ageo (green rice leafhopper) assessed as mortality […] after 2 days by foliar spraying method; type: functional; details: 48 h
[4] = tested on: Tetranychus urticae; experiment: Acaricidal activity against Tetranychus urticae (two-spotted spider mite) assessed as mortality at 200 ppm after 2 days by leaf dipping method; type: functional; details: foliar, 48 h
[5] = Drug degradation in sorensen buffer assessed as hydrolysis at 3 x 10^-5 M at pH 7.4 after 24 hr; type: physicochemical; details: read-out: Drug degradation
[6] = tested on: Culex pipiens; experiment: Insecticidal activity against Culex pipiens assessed as mortality at 200 ppm after 2 days by immersion method; type: functional; details: 48 h
[7] = tested on: Plutella xylostella; experiment: Insecticidal activity against Plutella xylostella (diamondback moth) assessed as mortality at 200 ppm after 2 days by foliar spraying method; type: functional; details: 48 h
[8] = tested on: Nilaparvata lugens; experiment: Insecticidal activity against Nilaparvata lugens (brown planthopper) assessed as mortality at 200 ppm after 6 days by foliar spraying method; type: functional; details: 144 h
[9] = tested on: Nilaparvata lugens; experiment: Insecticidal activity against Nilaparvata lugens (brown planthopper) assessed as mortality at 200 ppm after 2 days by foliar spraying method; type: functional; details: 48 h
[10] = tested on: Nephotettix cincticeps; experiment: Insecticidal activity against Nephotettix cincticeps Izumi (green rice leafhopper) assessed as mortality at 200 ppm after 6 days by foliar spraying method; type: functional; details: 144 h
[11] = tested on: Nephotettix cincticeps; experiment: Insecticidal activity against Nephotettix cincticeps Izumi (green rice leafhopper) assessed as mortality at 200 ppm after 2 days by foliar spraying method; type: functional; details: 48 h
[12] = tested on: Musca domestica; experiment: Insecticidal activity against Musca domestica (house fly) NAIDM; type: functional
[13] = tested on: Nephotettix cincticeps; experiment: Insecticidal activity against drug-susceptible Nephotettix cincticeps Ageo (green rice leafhopper) assessed as mortality after 2 days by foliar spraying method; type: functional; details: 48 h
[14] = target: T1, Acetylcholinesterase (Bos taurus, UniProt P23795); experiment: Inhibition of Bos taurus (bovine) erythrocytes acetylcholinesterase; details: read-out: I50
T1 sequence (P23795 whole entry): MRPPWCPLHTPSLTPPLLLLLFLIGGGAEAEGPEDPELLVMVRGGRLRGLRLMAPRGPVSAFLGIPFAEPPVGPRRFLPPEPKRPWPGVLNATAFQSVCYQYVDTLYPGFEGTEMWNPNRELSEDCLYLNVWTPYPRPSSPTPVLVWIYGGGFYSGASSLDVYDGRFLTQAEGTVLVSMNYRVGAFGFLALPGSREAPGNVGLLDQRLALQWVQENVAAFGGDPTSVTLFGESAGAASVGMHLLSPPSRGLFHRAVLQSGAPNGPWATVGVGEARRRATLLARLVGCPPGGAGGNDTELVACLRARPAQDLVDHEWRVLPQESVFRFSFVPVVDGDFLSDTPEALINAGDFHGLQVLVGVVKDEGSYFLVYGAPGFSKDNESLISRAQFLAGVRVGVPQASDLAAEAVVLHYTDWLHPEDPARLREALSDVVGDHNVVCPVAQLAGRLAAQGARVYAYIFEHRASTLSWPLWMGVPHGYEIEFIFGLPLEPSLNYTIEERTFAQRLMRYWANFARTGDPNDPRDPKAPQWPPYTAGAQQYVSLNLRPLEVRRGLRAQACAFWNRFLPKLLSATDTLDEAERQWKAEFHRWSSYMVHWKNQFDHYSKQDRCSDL

[15] = target: Acetylcholinesterase (Musca domestica, UniProt Q7YWJ9); experiment: Inhibition of Musca domestica (house fly) NAIDM head acetylcholinesterase; details: read-out: I50
Sequence of Acetylcholinesterase (Musca domestica, UniProt Q7YWJ9) (Q7YWJ9 whole entry): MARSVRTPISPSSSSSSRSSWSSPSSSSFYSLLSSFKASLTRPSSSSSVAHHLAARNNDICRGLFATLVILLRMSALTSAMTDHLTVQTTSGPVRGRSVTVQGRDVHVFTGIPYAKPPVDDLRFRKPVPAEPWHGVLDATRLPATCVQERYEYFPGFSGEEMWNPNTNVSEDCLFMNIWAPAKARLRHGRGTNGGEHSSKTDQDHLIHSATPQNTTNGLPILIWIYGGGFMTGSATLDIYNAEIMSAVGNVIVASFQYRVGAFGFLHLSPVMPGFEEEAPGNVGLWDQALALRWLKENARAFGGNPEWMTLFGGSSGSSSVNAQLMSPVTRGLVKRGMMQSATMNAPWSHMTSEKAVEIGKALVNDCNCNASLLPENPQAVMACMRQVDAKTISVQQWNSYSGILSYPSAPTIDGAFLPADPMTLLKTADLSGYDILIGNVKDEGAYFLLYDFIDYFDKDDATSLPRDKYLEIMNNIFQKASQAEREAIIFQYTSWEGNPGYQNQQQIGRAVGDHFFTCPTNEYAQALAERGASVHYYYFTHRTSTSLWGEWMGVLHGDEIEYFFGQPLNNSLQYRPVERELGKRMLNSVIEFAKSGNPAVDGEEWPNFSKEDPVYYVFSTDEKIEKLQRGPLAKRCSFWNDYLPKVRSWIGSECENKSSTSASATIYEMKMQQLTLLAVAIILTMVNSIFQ

[16] = target: Ace-orthologous acetylcholinesterase (Nephotettix cincticeps, UniProt Q9NJH6); experiment: Inhibition of drug-susceptible Nephotettix cincticeps Ageo (green rice leafhopper) acetylcholinesterase; details: read-out: I50
Sequence of Ace-orthologous acetylcholinesterase (Q9NJH6 whole entry): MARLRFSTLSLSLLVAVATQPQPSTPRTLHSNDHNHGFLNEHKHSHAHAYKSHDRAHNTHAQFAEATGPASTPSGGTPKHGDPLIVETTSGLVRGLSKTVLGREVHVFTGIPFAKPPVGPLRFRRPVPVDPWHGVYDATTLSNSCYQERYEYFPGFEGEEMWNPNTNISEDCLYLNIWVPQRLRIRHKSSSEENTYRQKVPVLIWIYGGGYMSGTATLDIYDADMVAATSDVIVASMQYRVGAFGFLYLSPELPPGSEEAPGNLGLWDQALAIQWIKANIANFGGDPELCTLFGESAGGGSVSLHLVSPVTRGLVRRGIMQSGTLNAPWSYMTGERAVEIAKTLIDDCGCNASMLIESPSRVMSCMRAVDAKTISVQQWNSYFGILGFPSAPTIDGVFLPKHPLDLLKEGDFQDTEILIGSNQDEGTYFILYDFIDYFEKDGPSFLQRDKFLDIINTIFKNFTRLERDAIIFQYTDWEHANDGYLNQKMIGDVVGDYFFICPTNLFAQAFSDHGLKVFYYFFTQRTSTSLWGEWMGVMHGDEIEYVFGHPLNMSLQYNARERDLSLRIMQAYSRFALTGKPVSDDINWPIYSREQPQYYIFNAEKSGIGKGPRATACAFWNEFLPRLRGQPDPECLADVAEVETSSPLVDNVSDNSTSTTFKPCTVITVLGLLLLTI

SMILES | log K [1] | LD50 [2] [mg/kg] | LD50 [3] [mg/kg] | mortality at 200 ppm [4] [%] | degraded at 24 h, 30 µM [5] [%] | mortality at 200 ppm [6] [%] | mortality at 200 ppm [7] [%] | mortality at 200 ppm [8] [%] | mortality at 200 ppm [9] [%] | mortality at 200 ppm [10] [%] | mortality at 200 ppm [11] [%] | LD50 [12] [µg] | LD50 [13] [mg/kg] | IC50 [14] [µM] | IC50 [15] [µM] | IC50 [16] [µM]
CC(C)CSc1nccc(OS(C)(=O)=O)n1 | 0.18 | > 100 | > 100 | < 10 | 88.8 | 0 | 0 | 20 | 20 | 30 | 20 |  |  |  |  | 
CC(C)CSc1nnc(OS(C)(=O)=O)s1 [5-(ISOBUTYLTHIO)-1,3,4-THIADIAZOL-2-YL METHANESULFONATE] |  |  |  | < 10 |  | 0 | 70 | 20 | 0 | 0 | 0 |  |  |  |  | 
CC(C)CSc1cc2ccccc2c(OS(C)(=O)=O)n1 [3-(ISOBUTYLTHIO)ISOQUINOLIN-1-YL METHANESULFONATE] |  |  |  | < 10 |  | 50 | 0 | 10 | 0 | 80 | 20 |  |  |  |  | 
CC(C)CSc1cncc(OS(C)(=O)=O)n1 [6-(ISOBUTYLTHIO)PYRAZIN-2-YL METHANESULFONATE] | 0.32 | 40.1 | 4.6 | < 10 | 36.6 | 100 | 0 |  | 100 | 70 | 50 |  |  |  |  | 
CC(C)CSc1ccnc(OS(C)(=O)=O)c1 [4-(ISOBUTYLTHIO)PYRIDIN-2-YL METHANESULFONATE] | 0.324 | 2.8 | 2.3 | < 10 | 4.5 | 100 | 0 |  | 100 |  | 100 |  |  |  |  | 
CC(C)C[S+]([O-])c1cccc(OS(C)(=O)=O)c1 (centres undefined) [3-(ISOBUTYLSULFINYL)PHENYL METHANESULFONATE] |  |  |  |  |  |  |  |  |  |  |  | 1.46 | 3.18 | 0.56 | 12 | 0.002
CC(C)CS(=O)(=O)c1ccnc(OS(C)(=O)=O)c1 [4-(ISOBUTYLSULFONYL)PYRIDIN-2-YL METHANESULFONATE] |  |  |  |  |  |  |  |  |  |  |  | 0.33 | 0.72 | 0.8 | 1.9 | 0.026
CC(C)CSc1nc(OS(C)(=O)=O)cs1 | 0.316 | 11.1 | 8.2 | < 10 | 9.8 | 100 | 0 |  | 100 |  | 100 | 3.9 | 14.9 | 31 | 2200 | 58
CC(C)CS(=O)(=O)c1nc(OS(C)(=O)=O)cs1 |  |  |  |  |  |  |  |  |  |  |  | >100 | 0.52 | 1.4 | 0.00098 | 0.0019
CC(C)CS(=O)(=O)c1cccc(OS(C)(=O)=O)n1 |  |  |  |  |  |  |  |  |  |  |  | 16 | 1.15 | 0.9 | 0.15 | 0.0057
CC(C)CSc1cccc(OS(C)(=O)=O)c1 [3-(ISOBUTYLTHIO)PHENYL METHANESULFONATE] | 0.541 | 26.1 | 10.8 | < 10 | 2.6 | 100 | 0 |  | 100 |  | 100 |  |  |  |  | 
CCC(C)c1ccccc1OC(=O)NC (centres undefined) [FENOBUCARB] |  |  |  |  |  |  |  |  |  |  |  | 1.44 | 11.8 | 12 | 1.4 | 0.18
CC(C)CSc1ccc(OS(C)(=O)=O)nn1 [6-(ISOBUTYLTHIO)PYRIDAZIN-3-YL METHANESULFONATE] |  |  |  | < 10 |  | 0 | 0 | 0 | 0 | 0 | 0 |  |  |  |  | 
CC(C)CSc1cncc(OS(C)(=O)=O)c1 [5-(ISOBUTYLTHIO)PYRIDIN-3-YL METHANESULFONATE] | 0.258 | 3.7 | 1.9 | < 10 | 3.8 | 100 | 0 |  | 100 |  | 100 |  |  |  |  | 
CC(C)CS(=O)(=O)c1cccc(OS(C)(=O)=O)c1 [3-(ISOBUTYLSULFONYL)PHENYL METHANESULFONATE] |  |  |  |  |  |  |  |  |  |  |  | >100 | 13 | 1 | 0.37 | 0.046
CC(C)CSc1nc(OS(C)(=O)=O)cc2ccccc12 |  |  |  | < 10 |  | 40 | 0 | 60 | 0 | 60 | 30 |  |  |  |  | 
CC(C)CSc1ccc(OS(C)(=O)=O)nc1 [5-(ISOBUTYLTHIO)PYRIDIN-2-YL METHANESULFONATE] |  |  |  | < 10 |  | 10 | 0 |  | 100 | 10 | 0 |  |  |  |  | 
CC(C)CSc1cccnc1OS(C)(=O)=O [3-(ISOBUTYLTHIO)PYRIDIN-2-YL METHANESULFONATE] |  |  |  | < 10 |  | 30 | 0 | 90 | 50 | 100 | 40 |  |  |  |  | 
CNC(=O)Oc1cccc2ccccc12 [CARBARIL] |  |  |  |  |  |  |  |  |  |  |  |  |  |  | 0.2 | 0.029
CC(C)CSc1cccc(OS(C)(=O)=O)n1 [6-(ISOBUTYLTHIO)PYRIDIN-2-YL METHANESULFONATE] | 0.4 | 2.9 | 1.8 | 72 | 1.8 | 100 | 0 |  | 100 |  | 100 | 1.11 | 1.06 | 2000 | 1300 | 2000
